Results published in patent US12295936B2, “Immunomodulating urea azalides” (Zoetis Services LLC, priority 2020, dated 2025).
Where two headings read alike, the source gives them in different places.

Experiments:
[1] = system: TNF-α; assay: LPS-stimulated whole bovine blood assay, MSD cytokine detection; type: cell-based; details: LPS-stimulated bovine whole blood, read-out: TNF-α (IC50 μM)
Procedure: (§1) Therefore, a fresh whole bovine blood assay was developed with LPS as a stimulant (TLR-4 agonist) and with IL-1β and TNF-α as the read-out. Compounds of the invention were evaluated against a positive control for their ability to inhibit LPS-induced IL-1β and TNF-α as an overall evaluation of relative potency and modulation of target pathways (Table 6).
In the bovine whole blood in vitro screening assay the inhibition of TNFα as induced by stimulation by lipopolysaccharide (LPS) and as measured by half the maximal inhibitory concentration (IC50) is recognized as the primary biomarker of immunomodulation potency upon pretreatment with the compounds of the invention. IL-1β is a mediator of the inflammation response and is involved in a number of cellular activities including proliferation, differentiation and apoptosis. IL-1β is also released upon cellular stress or cytotoxicity or upon TLR stimulation. In the bovine whole blood assay the stimulation of IL-1β release upon increasing concentration of test compound is seen as a potential cellular toxicity signal as induced by the test compound. In order to estimate a therapeutic index from the in vitro assay a differential between the TNFα IC50 (immunomodulation potency) versus the perceived cellular toxicity concentration (IL-1β release or overstimulation) was utilized.

[2] = system: IL-1β; assay: as above; type: cell-based; details: overstimulation of IL-1β, LPS-stimulated bovine whole blood
Procedure: as §1, with “The effect of multiple cytokines was not easily quantified using single cell types. Therefore,” for “Therefore,”
(§2) In order to correlate RNA sequencing data to cytokine changes the whole blood assay was utilized. […] The enhancement result represents an overall stimulation of cytokine levels due to cellular stress or potential toxicity with increasing concentrations of the compound, representing a typical bell shape response curve for immunomodulatory activity.
In the bovine whole blood in vitro screening assay the inhibition of TNFα as induced by stimulation by lipopolysaccharide (LPS) and as measured by half the maximal inhibitory concentration (IC50) is recognized as the primary biomarker of immunomodulation potency upon pretreatment with the compounds of the invention.

[3] = system: IL-6; assay: as above; type: cell-based; details: LPS-stimulated bovine whole blood, read-out: IL-6 (IC50 μM)
Description: as §2

[4] = system: BRD pathogens, M. haemolytica and P. multocida; assay: MIC screening panel of BRD pathogens (antibacterial / non-antibacterial)
[5] = read-out: antibacterial / non-antibacterial (MIC for the BRD pathogens)

Which IC50 [1] does the source give for “1-((2S,3R,4S,6R)-2-(((2R,3S,4R,5R,8R,10R,11R,12S,13S,14R)-13-(((2R,4R,5S,6S)-5-(ethoxymethyl)-5-hydroxy-4-methoxy-4,6-dimethyltetrahydro-2H-pyran-2-yl)oxy)-2-ethyl-3,4,10-trihydroxy-3,5,8,10,12,14-hexamethyl-15-oxo-1-oxa-6-azacyclopentadecan-11-yl)oxy)-3-hydroxy-6-methyltetrahydro-2H-pyran-4-yl)-1,3-dimethyl-3-phenylurea [Example C-2]” here?
Its IC50 is 200 µM.

And the “IL-1β OS of LPS” value [2]?
Its value is 100 µM.

And the IC50 [3]?
The IC50 was 100 µM.

With “3-ethyl-1-((2S,3R,4S,6R)-2-(((2R,3S,4R,5R,8R,10R,11R,12S,13S,14R)-2-ethyl-3,4,10-trihydroxy-13-(((2R,4R,5S,6S)-5-hydroxy-4-methoxy-4,6-dimethyl-5-((4-methylpiperazin-1-yl)methyl)tetrahydro-2H-pyran-2-yl)oxy)-3,5,8,10,12,14-hexamethyl-15-oxo-1-oxa-6-azacyclopentadecan-11-yl)oxy)-3-hydroxy-6-methyltetrahydro-2H-pyran-4-yl)-1-methylurea [Example J-9]” as the compound, how does the IC50 [1] read?
Its IC50 is over 500 µM.

And the “IL-1β OS of LPS” value [2]?
Its value is over 500 µM.

And the IC50 [3]?
Its IC50 is over 500 µM.

`CCCNC[C@]1(O)[C@H](C)O[C@@H](O[C@H]2[C@H](C)[C@@H](O[C@@H]3O[C@H](C)C[C@H](NCC(C)C)[C@H]3Oc3ccccc3)[C@](C)(O)C[C@@H](C)CN[C@H](C)[C@@H](O)[C@](C)(O)[C@@H](CC)OC(=O)[C@@H]2C)C[C@@]1(C)OC` [E-155] was tested. Which IC50 [1] did it give?
Its IC50 is 8 µM.

What about the “IL-1β OS of LPS” value [2] of the same compound?
The value was 6 µM.

And the IC50 [3]?
Its IC50 is 8 µM.

Which IC50 ([1]; Bos taurus) does the source give for `CC[C@H]1OC(=O)[C@H](C)[C@@H](O)[C@H](C)[C@@H](O[C@@H]2O[C@H](C)C[C@H](N(C)C(=O)Nc3ccncc3)[C@H]2O)[C@](C)(O)C[C@@H](C)CN[C@H](C)[C@@H](O)[C@]1(C)O` [Example A-5, 1-((2S,3R,4S,6R)-2-(((2R,3S,4R,5R,8R,10R,11R,12S,13S,14R)-2-ethyl-3,4,10,13-tetrahydroxy-3,5,8,10,12,14-hexamethyl-15-oxo-1-oxa-6-azacyclopentadecan-11-yl)oxy)-3-hydroxy-6-methyltetrahydro-2H-pyran-4-yl)-1-methyl-3-(pyridin-4-yl)urea] here?
The IC50 was over 250 µM.

And the “IL-1β OS of LPS” value [2]?
Its value is 24 µM.

And the IC50 ([3]; Bos taurus)?
The IC50 was over 250 µM.

For `CC[C@H]1OC(=O)[C@H](C)[C@@H](O)[C@H](C)[C@@H](O[C@@H]2O[C@H](C)C[C@H](N(C)C(=O)Nc3ccccc3OC)[C@H]2O)[C@](C)(O)C[C@@H](C)CN[C@H](C)[C@@H](O)[C@]1(C)O` [Example A-8, 1-((2S,3R,4S,6R)-2-(((2R,3S,4R,5R,8R,10R,11R,12S,13S,14R)-2-ethyl-3,4,10,13-tetrahydroxy-3,5,8,10,12,14-hexamethyl-15-oxo-1-oxa-6-azacyclopentadecan-11-yl)oxy)-3-hydroxy-6-methyltetrahydro-2H-pyran-4-yl)-3-(2-methoxyphenyl)-1-methylurea], which IC50 ([1]; Bos taurus) is on record?
The IC50 was over 250 µM.

And the “IL-1β OS of LPS” value [2]?
The value was 101 µM.

And the IC50 ([3]; Bos taurus)?
Its IC50 is 16 µM.

For `CC[C@H]1OC(=O)[C@H](C)[C@@H](O)[C@H](C)[C@@H](O[C@@H]2O[C@H](C)C[C@H](N(C)C(=O)Nc3ccccc3)[C@H]2O)[C@](C)(O)C[C@@H](C)CN[C@H](C)[C@@H](O)[C@]1(C)O` [Example A-13, 1-((2S,3R,4S,6R)-2-(((2R,3S,4R,5R,8R,10R,11R,12S,13S,14R)-2-ethyl-3,4,10,13-tetrahydroxy-3,5,8,10,12,14-hexamethyl-15-oxo-1-oxa-6-azacyclopentadecan-11-yl)oxy)-3-hydroxy-6-methyltetrahydro-2H-pyran-4-yl)-1-methyl-3-phenylurea], which IC50 ([1]; Bos taurus) is on record?
The IC50 was 200 µM.

What about the “IL-1β OS of LPS” value [2] of the same compound?
The value was over 500 µM.

What about the IC50 ([3]; Bos taurus) of the same compound?
The IC50 was over 500 µM.

For `CCNC[C@]1(O)[C@H](C)O[C@@H](O[C@H]2[C@H](C)[C@@H](O[C@@H]3O[C@H](C)C[C@H](N(C)C(=O)N(C)c4ccccc4)[C@H]3O)[C@](C)(O)C[C@@H](C)CN[C@H](C)[C@@H](O)[C@](C)(O)[C@@H](CC)OC(=O)[C@@H]2C)C[C@@]1(C)OC` [Example H-23, 1-((2S,3R,4S,6R)-2-(((2R,3S,4R,5R,8R,10R,11R,12S,13S,14R)-2-ethyl-13-(((2R,4R,5S,6S)-5-((ethylamino)methyl)-5-hydroxy-4-methoxy-4,6-dimethyltetrahydro-2H-pyran-2-yl)oxy)-3,4,10-trihydroxy-3,5,8,10,12,14-hexamethyl-15-oxo-1-oxa-6-azacyclopentadecan-11-yl)oxy)-3-hydroxy-6-methyltetrahydro-2H-pyran-4-yl)-1,3-dimethyl-3-phenylurea], which “IL-1β OS of LPS” value [2] is on record?
Its value is 100 µM.

And the IC50 ([3]; Bos taurus)?
The IC50 was 193 µM.

`CC[C@H]1OC(=O)[C@H](C)[C@@H](O[C@H]2C[C@@](C)(OC)[C@](O)(CNCCN3CCOCC3)[C@H](C)O2)[C@H](C)[C@@H](O[C@@H]2O[C@H](C)C[C@H](N(C)C(=O)N(C)c3ccccc3)[C@H]2O)[C@](C)(O)C[C@@H](C)CN[C@H](C)[C@@H](O)[C@]1(C)O` [Example H-42, 1-((2S,3R,4S,6R)-2-(((2R,3S,4R,5R,8R,10R,11R,12S,13S,14R)-2-ethyl-3,4,10-trihydroxy-13-(((2R,4R,5S,6S)-5-hydroxy-4-methoxy-4,6-dimethyl-5-(((2-morpholinoethyl)amino)methyl)tetrahydro-2H-pyran-2-yl)oxy)-3,5,8,10,12,14-hexamethyl-15-oxo-1-oxa-6-azacyclopentadecan-11-yl)oxy)-3-hydroxy-6-methyltetrahydro-2H-pyran-4-yl)-1,3-dimethyl-3-phenylurea] was tested. Which “IL-1β OS of LPS” value [2] did it give?
Its value is 100 µM.

What about the IC50 ([3]; Bos taurus) of the same compound?
Its IC50 is 177 µM.

What about the MIC [4, 5] of the same compound?
Its MIC is over 64 µg/mL.

How did the IC50 ([1]; Bos taurus) turn out when `CC[C@H]1OC(=O)[C@H](C)[C@@H](O[C@H]2C[C@@](C)(OC)[C@](O)(CN3Cc4nccnc4C3)[C@H](C)O2)[C@H](C)[C@@H](O[C@@H]2O[C@H](C)C[C@H](N(C)C(=O)N(C)c3ccccc3)[C@H]2O)[C@](C)(O)C[C@@H](C)CN[C@H](C)[C@@H](O)[C@]1(C)O` [Example J-16, 1-((2S,3R,4S,6R)-2-(((2R,3S,4R,5R,8R,10R,11R,12S,13S,14R)-13-(((2R,4R,5S,6S)-5-((5,7-dihydro-6H-pyrrolo[3,4-b]pyrazin-6-yl)methyl)-5-hydroxy-4-methoxy-4,6-dimethyltetrahydro-2H-pyran-2-yl)oxy)-2-ethyl-3,4,10-trihydroxy-3,5,8,10,12,14-hexamethyl-15-oxo-1-oxa-6-azacyclopentadecan-11-yl)oxy)-3-hydroxy-6-methyltetrahydro-2H-pyran-4-yl)-1,3-dimethyl-3-phenylurea] was run?
The IC50 was 60 µM.

What about the “IL-1β OS of LPS” value [2] of the same compound?
Its value is 40 µM.

And the MIC [4, 5]?
Its MIC is over 64 µg/mL.

How did the IC50 ([1]; Bos taurus) turn out when `CC[C@H]1OC(=O)[C@H](C)[C@@H](O[C@H]2C[C@@](C)(OC)[C@](O)(CN3CC(N4CCCCC4)C3)[C@H](C)O2)[C@H](C)[C@@H](O[C@@H]2O[C@H](C)C[C@H](N(C)C(=O)N(C)c3ccccc3)[C@H]2O)[C@](C)(O)C[C@@H](C)CN[C@H](C)[C@@H](O)[C@]1(C)O` [Example J-19, 1-((2S,3R,4S,6R)-2-(((2R,3S,4R,5R,8R,10R,11R,12S,13S,14R)-2-ethyl-3,4,10-trihydroxy-13-(((2R,4R,5S,6S)-5-hydroxy-4-methoxy-4,6-dimethyl-5-((3-(piperidin-1-yl)azetidin-1-yl)methyl)tetrahydro-2H-pyran-2-yl)oxy)-3,5,8,10,12,14-hexamethyl-15-oxo-1-oxa-6-azacyclopentadecan-11-yl)oxy)-3-hydroxy-6-methyltetrahydro-2H-pyran-4-yl)-1,3-dimethyl-3-phenylurea] was run?
Its IC50 is 19 µM.

What about the “IL-1β OS of LPS” value [2] of the same compound?
Its value is 16 µM.

What about the MIC [4, 5] of the same compound?
Its MIC is over 64 µg/mL.

`CC[C@H]1OC(=O)[C@H](C)[C@@H](O[C@H]2C[C@@](C)(OC)[C@](O)(CN3CCc4ccccc4C3)[C@H](C)O2)[C@H](C)[C@@H](O[C@@H]2O[C@H](C)C[C@H](N(C)C(=O)N(C)c3ccccc3)[C@H]2O)[C@](C)(O)C[C@@H](C)CN[C@H](C)[C@@H](O)[C@]1(C)O` [Example J-25, 1-((2S,3R,4S,6R)-2-(((2R,3S,4R,5R,8R,10R,11R,12S,13S,14R)-13-(((2R,4R,5S,6S)-5-((3,4-dihydroisoquinolin-2(1H)-yl)methyl)-5-hydroxy-4-methoxy-4,6-dimethyltetrahydro-2H-pyran-2-yl)oxy)-2-ethyl-3,4,10-trihydroxy-3,5,8,10,12,14-hexamethyl-15-oxo-1-oxa-6-azacyclopentadecan-11-yl)oxy)-3-hydroxy-6-methyltetrahydro-2H-pyran-4-yl)-1,3-dimethyl-3-phenylurea] was tested. Which IC50 ([1]; Bos taurus) did it give?
Its IC50 is 6 µM.

What about the “IL-1β OS of LPS” value [2] of the same compound?
The value was 16 µM.

What about the MIC ([4]; read-out: MIC ≤64 μg/mL for at least one of the bacterial strains (flag * at Ex #)) of the same compound?
Its MIC is under 64 µg/mL.
